Measured values published in patent US12091399B2, “Phenyltetrazole derivatives as plasma kallikrein inhibitors” (Boehringer Ingelheim International GmbH, priority 2018, dated 2024).
Square brackets hold non-standard residues; d marks the D form. Peptide text beside a SMILES is read from it. * marks the point of attachment. pNA = O=[N+]([O-])c1ccc(N*)cc1; Cbz = O=C(OCc1ccccc1)*

Key:
Human FXa = Human FXa (Homo sapiens (Human), UniProt P00742); assay: Inhibition of FXa (Ki); assay type: biochemical; settings: substrate KM, enzyme FXa
Experimental: (§1) The ability of compounds of formula (I) to inhibit plasma kallikrein (PKK), Factor XIIa (FXIIa), Factor XIa (FXIa), Factor Xa (FXa), Factor IIa (alpha-thrombin; FIIa), plasmin, trypsin, tissue kallikrein 1 (TK1), Factor Vila (FVIIa), or FVIIa complexed with Tissue Factor, phospholipids and CaCl2) (FVIIa/TF/PL/CaCl2) was determined using the following biochemical assays in assay buffer (100 mM Tris, 150 mM NaCL, adjusted to a pH of 7.8 with HCl, and containing 0.1% (w/v) BSA and 0.05% (v/v) Tween20) in the presence of 1% (v/v) DMSO:
(§2) Human FXa (0.86 nM or 0.01 U/mL; Enzyme Research Laboratories) was incubated at 24° C. with 0.5 mM chromogenic Substrate S2765 (Chromogenix) and various concentrations of the test compound in assay buffer. Measurements were performed in a kinetic interval every 2nd minute for 16 min using a Spectramax M5 (Molecular Devices) measuring the optical absorbance at 405 nm.
(§3) The pIC50 values were then fitted using a four-parametric fitting procedure using GraphPad Prism (version 6; GraphPad Software, Inc.). Respective Ki values were obtained by correction of the IC50 values for the respective KM value of the used substrate (see Table A for the obtained KM values of the used substrates) using the following formula: […]

Human FIIa = Human FIIa (Homo sapiens (Human), UniProt P00734); assay: Inhibition of FIIa (Ki); assay type: biochemical; settings: substrate KM, enzyme FIIa
Experimental: as §1
as §2, with “FIIa (44.6” for “FXa (0.86”, “5” for “0.01”, “S2238” for “S2765”
as §3

Chain of Human FXa (P00742 235-488): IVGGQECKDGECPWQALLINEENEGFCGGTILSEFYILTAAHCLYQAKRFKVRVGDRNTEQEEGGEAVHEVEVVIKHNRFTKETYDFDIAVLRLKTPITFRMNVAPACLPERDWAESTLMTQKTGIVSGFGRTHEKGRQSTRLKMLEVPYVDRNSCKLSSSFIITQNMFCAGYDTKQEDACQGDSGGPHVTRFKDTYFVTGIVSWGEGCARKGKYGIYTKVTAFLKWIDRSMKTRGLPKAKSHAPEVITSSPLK
Chain of Human FXa (P00742 41-179 partner): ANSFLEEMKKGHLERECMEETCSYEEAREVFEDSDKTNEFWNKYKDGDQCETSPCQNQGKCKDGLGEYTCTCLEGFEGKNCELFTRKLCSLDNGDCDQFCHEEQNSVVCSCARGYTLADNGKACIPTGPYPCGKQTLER

Km (Human FXa) [µM]	Km (Human FIIa) [µM]	SMILES
1310		NC(N)=NCCC[C@H](NC(=O)CNC(=O)[C@@H](CCCN=C(N)N)NC(=O)OCc1ccccc1)C(=O)Nc1ccc([N+](=O)[O-])cc1 [Example S2765] (Cbz-[dR]-Gly-Arg-pNA)
	1250	NC(N)=NCCC[C@H](NC(=O)[C@@H]1CCCCN1C(=O)[C@H](N)Cc1ccccc1)C(=O)Nc1ccc([N+](=O)[O-])cc1 [Example S2238]
